In US20240246960A1 (adMare Therapeutics Society, priority 2021, published 2024):
Where two headings read alike, the source gives them in different places.

Assays:
[1] = target: T1, DNA-PK phosphorylation at Serine 2056 (Homo sapiens, UniProt P78527); experiment: Cellular Assay for Inhibition of DNA-PK Phosphorylation at Serine 2056 (FaDu cells, neocarzinostatin, sandwich ELISA); type: cell-based; conditions: Table 1
T1 construct: host or cells: FaDu
In short: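 FaDu cells were pretreated with compound (0.3% DMSO) for 1 h, then exposed to neocarzinostatin at 1 μg/mL final for 2 h to induce DSBs. Protein-normalized lysates were assayed by MSD sandwich ELISA for total and pSer2056 DNA-PK. IC50 came from variable-slope fits of % inhibition relative to DMSO and NCS controls.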

[2] = target: T2, pDNA-PK ser2056 induction in HCT116 spheroids (Homo sapiens, UniProt P78527); experiment: Multicellular tumour spheroid + radiation, pDNA-PK inhibition, HCT116; type: cell-based; conditions: 20 Gy
T2 construct: endogenous in cells; host or cells: HCT116 multicellular tumour spheroids
In short: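 HCT116 spheroids (~0.5 mm) in MEM/10% FBS/10 mM glucose, 20% O2, 37 °C, pre-incubated 1 h with compound (10 or 5 μM down to 3.5 nM), irradiated 20 Gy, incubated 2 h more. Cryosections immunostained for pDNA-PK ser2056; EC50 (μM) for 50% reduction of radiation-induced pDNA-PK.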

[3] = Example 7, spheroid, cell line HCT115 [sic], 20% O2, read-out: EC50 (pDNA-PK inhibition, immunohistochemical endpoint)
[4] = Example 9 Study 2, 20% O2, read-out: Spheroid Cell line: HCT116 Immunohistochemical endpoint pDNA-PK inhibition EC50
[5] = Example 8, spheroid, read-out: Cell line: HCT116 Immunohistochemical endpoint pDNA-PK inhibition EC50

SMILES | IC50 [1] [nM] | EC50 [2, 3] [nM] | EC50 [2, 4] [nM] | EC50 [2, 5] [nM]
NC(=O)c1cnc(N[C@H]2CC[C@@H](Oc3nc(N4CCOCC4)cc4ncccc34)CC2)nc1 [Compound 52, 2-(((1s,4s)-4-((7-morpholino-1,6-naphthyridin-5-yl)oxy)cyclohexyl)amino)pyrimidine-5-carboxamide] | < 100 | 10 to 500 | 10 to 500 | –
CN(C)C(=O)c1cnc(N[C@H]2CC[C@@H](Oc3nc(N4CCOCC4)cc4ncccc34)CC2)nc1 [Compound 53, N,N-dimethyl-2-(((1s,4s)-4-((7-morpholino-1,6-naphthyridin-5-yl)oxy)cyclohexyl)amino)pyrimidine-5-carboxamide] | < 100 | 500 to 1000 | 500 to 1000 | –
Cc1nc(N[C@H]2CC[C@@H](Oc3nc(N4CCOCC4)cc4ncccc34)CC2)c2occc2n1 [Compound 81, 2-methyl-N-((1s,4s)-4-((7-morpholino-1,6-naphthyridin-5-yl)oxy)cyclohexyl)furo[3,2-d]pyrimidin-4-amine] | 100 to 1000 | 500 to 1000 | 500 to 1000 | –
c1cnc2cc(N3CCOCC3)nc(O[C@H]3CC[C@@H](Nc4ncnc5occc45)CC3)c2c1 [Compound 82, N-((1s,4s)-4-((7-morpholino-1,6-naphthyridin-5-yl)oxy)cyclohexyl)furo[2,3-d]pyrimidin-4-amine] | < 100 | 10 to 500 | 10 to 500 | –
c1cnc2cc(N3CCOCC3)nc(O[C@H]3CC[C@@H](Nc4ncnc5ccsc45)CC3)c2c1 [Compound 83, N-((1s,4s)-4-((7-morpholino-1,6-naphthyridin-5-yl)oxy)cyclohexyl)thieno[3,2-d]pyrimidin-4-amine] | < 100 | 10 to 500 | 10 to 500 | –
c1cnc2cc(N3CCOCC3)nc(O[C@H]3CC[C@@H](Nc4ncc5[nH]ccc5n4)CC3)c2c1 [Compound 85, N-((1s,4s)-4-((7-Morpholino-1,6-naphthyridin-5-yl)oxy)cyclohexyl)-5H-pyrrolo[3,2-d]pyrimidin-2-amine] | < 100 | 10 to 500 | 10 to 500 | –
Cn1ccc2nc(N[C@H]3CC[C@@H](Oc4nc(N5CCOCC5)cc5ncccc45)CC3)ncc21 [Compound 87, 5-Methyl-N-((1s,4s)-4-((7-morpholino-1,6-naphthyridin-5-yl)oxy)cyclohexyl)-5H-pyrrolo[3,2-d]pyrimidin-2-amine] | < 100 | 10 to 500 | 10 to 500 | –
Cn1cnc2cnc(N[C@H]3CC[C@@H](Oc4nc(N5CCOCC5)cc5ncccc45)CC3)nc21 [Compound 88, 9-Methyl-N-((1s,4s)-4-((7-morpholino-1,6-naphthyridin-5-yl)oxy)cyclohexyl)-9H-purin-2-amine] | 100 to 1000 | 10 to 500 | 10 to 500 | –
O=C(N[C@H]1CC[C@@H](Oc2nc(N3CCOCC3)cc3ncccc23)CC1)c1cncnc1 [Compound 122, N-((1s,4s)-4-((7-Morpholino-1,6-naphthyridin-5-yl)oxy)cyclohexyl)pyrimidine-5-carboxamide] | 100 to 1000 | 1000 to 10000 | 1000 to 10000 | 1000 to 10000
O=C(N[C@H]1CC[C@@H](Oc2nc(N3CCOCC3)cc3ncccc23)CC1)c1ncccn1 [Compound 123, N-((1s,4s)-4-((7-Morpholino-1,6-naphthyridin-5-yl)oxy)cyclohexyl)pyrimidine-2-carboxamide] | 100 to 1000 | 500 to 1000 | 500 to 1000 | 500 to 1000
O=C(N[C@H]1CC[C@@H](Oc2nc(N3CCOCC3)cc3ncccc23)CC1)c1ccco1 [Compound 132, N-((1s,4s)-4-((7-Morpholino-1,6-naphthyridin-5-yl)oxy)cyclohexyl)furan-2-carboxamide] | < 100 | 10 to 500 | 10 to 500 | 10 to 500
O=C(N[C@H]1CC[C@@H](Oc2nc(N3CCOCC3)cc3ncccc23)CC1)c1cc[nH]c1 [Compound 140, N-((1s,4s)-4-((7-morpholino-1,6-naphthyridin-5-yl)oxy)cyclohexyl)-1H-pyrrole-3-carboxamide] | < 100 | 10 to 500 | 10 to 500 | –
O=C(N[C@H]1CC[C@@H](Oc2nc(N3CCOCC3)cc3ncccc23)CC1)c1ncco1 [Compound 142, N-((1s,4s)-4-((7-morpholino-1,6-naphthyridin-5-yl)oxy)cyclohexyl)oxazole-2-carboxamide] | < 100 | 1000 to 10000 | 1000 to 10000 | –

Continued, values first:

IC50 [1] [nM] | EC50 [2, 3] [nM] | EC50 [2, 4] [nM] | EC50 [2, 5] [nM] | SMILES
100 to 1000 | 10 to 500 | 10 to 500 | – | c1cnc2cc(N3CCOCC3)nc(O[C@H]3CC[C@@H](Nc4ncnc5ccoc45)CC3)c2c1 [Compound 80a, N-((1s,4s)-4-((7-morpholino-1,6-naphthyridin-5-yl)oxy)cyclohexyl)furo[3,2-d]pyrimidin-4-amine]
100 to 1000 | 500 to 1000 | 500 to 1000 | – | c1cnc2cc(N3CCOCC3)nc(O[C@H]3CC[C@@H](Nc4ncc5sccc5n4)CC3)c2c1 [Compound 84, N-((1s,4s)-4-((7-Morpholino-1,6-naphthyridin-5-yl)oxy)cyclohexyl)thieno[3,2-d]pyrimidin-2-amine]
100 to 1000 | 500 to 1000 | 500 to 1000 | – | c1cnc2cc(N3CCOCC3)nc(O[C@H]3CC[C@@H](Nc4ccn5nccc5n4)CC3)c2c1 [Compound 89, N-((1s,4s)-4-((7-Morpholino-1,6-naphthyridin-5-yl)oxy)cyclohexyl)pyrazolo[1,5-a]pyrimidin-5-amine]
< 100 | 500 to 1000 | 500 to 1000 | – | O=C(N[C@H]1CC[C@@H](Oc2nc(N3CCOCC3)cc3ncccc23)CC1)c1ccncc1 [Compound 113, N-((1s,4s)-4-((7-morpholino-1,6-naphthyridin-5-yl)oxy)cyclohexyl)isonicotinamide]
< 100 | 1000 to 10000 | 1000 to 10000 | – | O=C(N[C@H]1CC[C@@H](Oc2nc(N3CCOCC3)cc3ncccc23)CC1)c1cccnc1 [Compound 115, N-((1s,4s)-4-((7-morpholino-1,6-naphthyridin-5-yl)oxy)cyclohexyl)nicotinamide]
100 to 1000 | 1000 to 10000 | 1000 to 10000 | – | O=C(N[C@H]1CC[C@@H](Oc2nc(N3CCOCC3)cc3ncccc23)CC1)c1ccncn1 [Compound 118, N-((1s,4s)-4-((7-morpholino-1,6-naphthyridin-5-yl)oxy)cyclohexyl)pyrimidine-4-carboxamide]
< 100 | 1000 to 10000 | 1000 to 10000 | – | O=C(N[C@H]1CC[C@@H](Oc2nc(N3CCOCC3)cc3ncccc23)CC1)c1ccnnc1 [Compound 121, N-((1s,4s)-4-((7-morpholino-1,6-naphthyridin-5-yl)oxy)cyclohexyl)pyridazine-4-carboxamide]
100 to 1000 | 1000 to 10000 | 1000 to 10000 | 1000 to 10000 | O=C(N[C@H]1CC[C@@H](Oc2nc(N3CCOCC3)cc3ncccc23)CC1)c1ccc(C(F)(F)F)o1 [Compound 133, N-((1s,4s)-4-((7-Morpholino-1,6-naphthyridin-5-yl)oxy)cyclohexyl)-5-(trifluoromethyl)furan-2-carboxamide]
100 to 1000 | 1000 to 10000 | 1000 to 10000 | – | O=C(N[C@H]1CC[C@@H](Oc2nc(N3CCOCC3)cc3ncccc23)CC1)c1nccs1 [Compound 135, N-((1s,4s)-4-((7-morpholino-1,6-naphthyridin-5-yl)oxy)cyclohexyl)thiazole-2-carboxamide]
